Test results from patent EP4775569A1, “3CL PROTEASE INHIBITOR FOR TREATING OR PREVENTING CORONAVIRUS INFECTIONS AND USE THEREOF” (The Global Health Drug Discovery Institute, priority 2023, dated 2025).
Like-named read-outs stand apart in the source and are kept apart here.

Columns and labels:
[1] = Toxicity Testing in Uninfected Cells; type: cell-based; settings: human, Cell-Titer Glo cell viability
Experimental: Toxicity Testing in Uninfected Cells
The compound was transferred to a 1536-well plate (Corning No. 9006BC), and then Hela-ACE cells were added (cell density: 600 cells/5 microliter of medium MEM with 2% FBS). After the assay plate was incubated at 37°C in 5% CO2 for 48 hours, cell viability was tested. 2 µL of 50% Cell-Titer Glo (Promega No G7573) was diluted in water and added to a cell assay plate, and then a value on EnVision Plate Reader (Perkin Elmer) was read.

SARS-CoV-2 = test: SARS-CoV-2/Hela-ACE Test; type: cell-based
SARS-CoV-2 3CLpro = SARS-CoV-2 3CLpro (Severe acute respiratory syndrome coronavirus 2, UniProt P0DTD1); test: Enzyme Activity Test; type: biochemical
[2] = uninfected Hela-ACE (HeLa ACE2) cells
[3] = Severe acute respiratory syndrome coronavirus 2, Hela-ACE cells infected with SARS-CoV-2 (USA-WA1/2020), MOI 0.75-1, 48 hours, read-out: Hela ACE2-CoV-2 EC50

Molecule `O=C1CCN(c2cc(Cl)cc(OCC(F)(F)F)c2)C(=O)N1c1cncc2ccccc12` [Example 2] has a CC50 at 48 h [1, 2] of over 99000 nM and an EC50 (SARS-CoV-2; [3]) of 0.03 µM.
`O=C1CCN(c2cc(Cl)cc(OCC3CC3)c2)C(=O)N1c1cncc2ccccc12` [Example 3] showed a CC50 at 48 h [1, 2] of 73400 nM and an EC50 (SARS-CoV-2; [3]) of 0.064 µM.
Molecule `O=C1CCN(c2cc(Cl)cc(OCC3CC(F)(F)C3)c2)C(=O)N1c1cncc2ccccc12` [Example 5] has a CC50 at 48 h [1, 2] of over 99000 nM and an EC50 (SARS-CoV-2; [3]) of 0.074 µM.
With `O=C1CCN(c2cc(Cl)cc(N3CC4(COC4)C3)c2)C(=O)N1c1cncc2ccccc12` [Example 23] the CC50 at 48 h [1, 2] was over 99000 nM and the EC50 (SARS-CoV-2; [3]) was 0.035 µM.
Work on `O=C1N(c2cc(Cl)cc(OCC(F)(F)F)c2)CC2(CC2)C(=O)N1c1cncc2ccccc12` [Example 33] yielded a CC50 at 48 h [1, 2] of over 99000 nM and an EC50 (SARS-CoV-2; [3]) of 0.087 µM.
In the case of `Cc1cncc(N2C(=O)CCN(c3cc(Cl)cc(OCC(F)(F)F)c3)C2=O)c1C` [Example 47], the IC50 (SARS-CoV-2 3CLpro) is reported as 55 nM.
In the case of `Cc1ccc2cncc(N3C(=O)CCN(c4cc(Cl)cc(OCC(F)(F)F)c4)C3=O)c2c1` [Example 48], the IC50 (SARS-CoV-2 3CLpro) is reported as 50 nM, the CC50 at 48 h ([1]; hela-ace2 cells, uninfected Hela-ACE cells) is reported as over 99000 nM and the EC50 (SARS-CoV-2; Severe acute respiratory syndrome coronavirus 2, HeLa, 48 h, read-out: Hela ACE2-CoV-2 EC50 (µM)) is reported as 0.052 µM.
`O=C1CCN(c2cc(Cl)cc(OCC(F)(F)F)c2)C(=O)N1c1cncc2ccc(F)cc12` [Example 49] gave an IC50 (SARS-CoV-2 3CLpro) of 43 nM.
`O=C1CCN(c2cc(F)c(Cl)c(OCC(F)(F)F)c2)C(=O)N1c1cncc2ccccc12` [Example 55] gave a CC50 at 48 h [1, 2] of 74000 nM and an EC50 (SARS-CoV-2; [3]) of 0.072 µM.
